Among the test systems are OVCAR-8; HT-29; SF-295; SK-MEL-5; IGROV-1; SNB-19; Malme-3M; UO-31; HCC 2998; OVCAR-4; HCT-15; SK-MEL-2; OVCAR-3; CAKI-1; OVCAR-5; HL-60; HOP-62; RXF 393; SK-MEL-28; SN12C.
Experiment in all cases: NCI-60 cell line screen, 48 h

Here are results for 11 compounds from ChEMBL document CHEMBL1201862, “PubChem BioAssay data set” (2004).

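The compound was tested at five concentrations on cells cultured in 96-well plates, with a 48-hour exposure period. Abbreviation: GI50, concentration required for 50% inhibition of growth.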 Calls of active or inactive are those of the source. No stated cut-off is given here; in the data, active = GI50 up to about 1.1 µM and inactive = higher.

Take `BrC(/C=N/Nc1nnc(-c2ccccc2)c(-c2ccccc2)n1)C(Br)c1ccccc1` (stereo not given): the GI50 was 38.5 µM (inactive) in the experiment on OVCAR-8; 34 µM (inactive) in the experiment with HT-29; 30.5 µM (inactive) with SF-295; 21.9 µM (inactive) with SK-MEL-5; 41.7 µM (inactive) in the experiment with IGROV-1; 64.4 µM (inactive) with SNB-19. Also, the GI50 was 28.5 µM (inactive) in the experiment on Malme-3M; 19.7 µM (inactive) with UO-31; 30.3 µM (inactive) in the experiment with HCC 2998; > 10 µM (inactive) in the experiment on OVCAR-4; 28.7 µM with HCT-15; 19.9 µM (inactive) with SK-MEL-2. Moreover, the GI50 in the experiment with OVCAR-3 is 35.7 µM (inactive); in the experiment on CAKI-1 it was 30.7 µM (inactive); in the experiment on OVCAR-5 it was 51.5 µM (inactive); with HL-60, 22.4 µM (inactive); with HOP-62 it was 20.6 µM (inactive); in the experiment with RXF 393 it was 25.1 µM (inactive). Moreover, the figures for the GI50 in the experiment with SK-MEL-28 and with SN12C were 37.3 µM (inactive) and 48.8 µM (inactive), respectively.
Consider `COc1ccc(C(=C2C=CC=C2)c2ccc(OC)cc2)cc1`, for which the GI50 in the experiment on OVCAR-8 is 44.5 µM (inactive); in the experiment on HT-29 it was 24 µM (inactive); with SF-295, 16.9 µM (inactive); in the experiment with SK-MEL-5 it was 30.2 µM (inactive); in the experiment on IGROV-1, 52 µM (inactive); in the experiment on SNB-19 it was 28 µM (inactive). Also, the GI50 was 28.8 µM (inactive) in the experiment on Malme-3M; 28.5 µM (inactive) in the experiment on UO-31; 19.3 µM (inactive) with HCC 2998; > 100 µM (inactive) in the experiment with OVCAR-4; 25.5 µM in the experiment with HCT-15; 24.8 µM (inactive) with SK-MEL-2. Also, the GI50 is 47.1 µM (inactive) with OVCAR-3; 23 µM (inactive) in the experiment on CAKI-1; 32.3 µM (inactive) in the experiment on OVCAR-5; 36.4 µM (inactive) in the experiment with HL-60; 39.9 µM (inactive) in the experiment with HOP-62; 25.2 µM (inactive) with RXF 393. Moreover, the GI50 in the experiment with SK-MEL-28 was 53.5 µM (inactive); with SN12C, 37.1 µM (inactive).
Take `COC1=C(C)C(=O)C2=C(C1=O)[C@@H]1[C@@H]3Cc4c(OC(=O)CO)c(C)c(OC)c(O)c4[C@H](CNC(=O)C(C)=O)N3[C@@H](C#N)[C@H](C2)N1C`: the GI50 was 0.024 µM (active) in the experiment on OVCAR-8; 0.0182 µM (active) in the experiment with HT-29; 0.199 µM (active) in the experiment with SF-295; 0.0154 µM (active) in the experiment with SK-MEL-5; 0.0177 µM (active) in the experiment with IGROV-1; 0.0414 µM (active) in the experiment with SNB-19. Besides, the GI50 in the experiment with Malme-3M was 0.0562 µM (active); in the experiment on UO-31, 0.0738 µM (active); in the experiment with HCC 2998 it was 0.0472 µM (active); in the experiment with OVCAR-4, 0.106 µM (active); in the experiment with HCT-15 it was under 0.01 µM; with SK-MEL-2, < 0.0189 µM (active). Besides, the GI50 with OVCAR-3 is < 0.0153 µM (active); with CAKI-1 it was < 0.01 µM (active); in the experiment on OVCAR-5, 0.098 µM (active); with HL-60, < 0.0135 µM (active); in the experiment on HOP-62, 0.221 µM (active); in the experiment on RXF 393, 0.0184 µM (active). Besides, the results for the GI50 in the experiment on SK-MEL-28 and in the experiment on SN12C were 0.0713 µM (active) and 0.013 µM (active), respectively.
On to `CC(=N/NC(=S)Nc1c(C)n(C)n(-c2ccccc2)c1=O)/C(C)=N\NC(=S)Nc1c(C)n(C)n(-c2ccccc2)c1=O`, for which the GI50 with OVCAR-8, in the experiment on HT-29, in the experiment with SF-295, with SK-MEL-5, in the experiment with SNB-19 and in the experiment on Malme-3M was > 100 µM (inactive) in each case. In addition, the GI50 is > 100 µM (inactive) with UO-31; > 100 µM (inactive) in the experiment on HCC 2998; > 100 µM (inactive) with OVCAR-4; over 100 µM with HCT-15; > 100 µM (inactive) with SK-MEL-2; > 100 µM (inactive) in the experiment with OVCAR-3. Also, the GI50 in the experiment on CAKI-1, in the experiment with OVCAR-5, with HL-60, with HOP-62 and with RXF 393 was > 100 µM (inactive) in each case.
In the case of `Oc1[nH]c(Nc2cccc(Br)c2)nc2ncnc1-2`, the GI50 was > 100 µM (inactive) in the experiment on OVCAR-8; 82.6 µM (inactive) in the experiment with HT-29; > 100 µM (inactive) with SF-295; > 100 µM (inactive) with SK-MEL-5; > 100 µM (inactive) in the experiment on IGROV-1; 71.8 µM (inactive) in the experiment on SNB-19. The GI50 is > 100 µM (inactive) in the experiment with Malme-3M; > 100 µM (inactive) in the experiment with UO-31; > 100 µM (inactive) in the experiment with HCC 2998; 15.5 µM (inactive) with OVCAR-4; over 100 µM with HCT-15; 23.6 µM (inactive) in the experiment with SK-MEL-2. For the same compound, the GI50 with OVCAR-3 was 89.5 µM (inactive); in the experiment with CAKI-1, > 100 µM (inactive); with OVCAR-5, > 100 µM (inactive); in the experiment with HL-60, 11.6 µM (inactive); in the experiment on RXF 393 it was > 100 µM (inactive); with SK-MEL-28, > 100 µM (inactive).
With `O=C(O)c1c[nH]c2c(=O)[nH]cnc12`, the GI50 in the experiment with OVCAR-8, with HT-29, in the experiment with SF-295, with SK-MEL-5, in the experiment on IGROV-1 and in the experiment with SNB-19 was > 100 µM (inactive) each time. In addition, the GI50 in the experiment with Malme-3M was > 100 µM (inactive); with UO-31, > 100 µM (inactive); in the experiment on HCC 2998, > 100 µM (inactive); with HCT-15, over 100 µM; with SK-MEL-2 it was > 100 µM (inactive); in the experiment on OVCAR-3 it was > 100 µM (inactive). Besides, the GI50 in the experiment with CAKI-1, in the experiment with OVCAR-5, in the experiment with HL-60, in the experiment with HOP-62, in the experiment with RXF 393 and in the experiment with SK-MEL-28 was > 100 µM (inactive) in each case. For the same compound, the GI50 with SN12C was > 100 µM (inactive).
`O=C(O)C(Br)Cc1ccc2c(c1)OCO2` (stereo not given): the GI50 with HT-29 is > 100 µM (inactive); in the experiment with SF-295 it was 55.5 µM (inactive); with SK-MEL-5 it was > 100 µM (inactive); with IGROV-1 it was > 100 µM (inactive); with SNB-19, > 100 µM (inactive); in the experiment with Malme-3M, 40.7 µM (inactive). Moreover, the GI50 is > 100 µM (inactive) with UO-31; > 100 µM (inactive) with HCC 2998; 88.7 µM (inactive) in the experiment with OVCAR-4; over 100 µM in the experiment with HCT-15; > 100 µM (inactive) in the experiment on SK-MEL-2; > 100 µM (inactive) in the experiment with OVCAR-3. Also, the GI50 with CAKI-1 is > 100 µM (inactive); in the experiment on OVCAR-5, > 100 µM (inactive); in the experiment on HL-60 it was > 100 µM (inactive); in the experiment with HOP-62, > 100 µM (inactive); in the experiment with RXF 393, 71.9 µM (inactive); with SK-MEL-28, > 100 µM (inactive). For the same compound, the GI50 in the experiment with SN12C is > 100 µM (inactive).
In the case of `COC(=O)C1=C(C)N2CCSC2(C)C(C(=O)OC)C1c1cccc(Cl)c1` (stereo not given), the GI50 with OVCAR-8 was 22.6 µM (inactive); in the experiment with HT-29 it was 16.6 µM (inactive); in the experiment on SF-295, 13.9 µM (inactive); with SK-MEL-5, 14.5 µM (inactive); with IGROV-1, 20.8 µM (inactive); in the experiment with SNB-19 it was 16.6 µM (inactive). Further, the GI50 in the experiment with UO-31 is 13.2 µM (inactive); with HCC 2998, 21 µM (inactive); in the experiment with OVCAR-4 it was 49.7 µM (inactive); in the experiment on SK-MEL-2, 17.7 µM (inactive); with OVCAR-3, 15.6 µM (inactive); in the experiment on CAKI-1 it was 14 µM (inactive). The GI50 in the experiment with HL-60 was 12.4 µM (inactive); with HOP-62, 18.9 µM (inactive); with RXF 393, 21.9 µM (inactive); with SK-MEL-28, 19.1 µM (inactive).
`CC1[C@@]2(O[C@@H]3C=C4C5CCC6Cc7nc8c(nc7C[C@@]6(C)C5C[C@H](O)[C@@]4(C)[C@]13O)CC1CCc3c(cc4c5c3C(O)C[C@H]5[C@@H](C)C3(O4)OC(C)(C)CC3O)[C@]1(C)C8)O[C@@](C)(CO)C[C@@H]2O` (stereo not given in full): the GI50 with OVCAR-8 is 3.24 µM (inactive); in the experiment with HT-29 it was 0.402 µM (active); in the experiment on SF-295, 0.06 µM (active); in the experiment on SK-MEL-5 it was 0.303 µM (active); in the experiment with IGROV-1, 0.345 µM (active); with SNB-19 it was 1.38 µM (inactive). Also, the GI50 in the experiment on Malme-3M is 0.22 µM (active); in the experiment with UO-31 it was 1.39 µM (inactive); with HCC 2998, 1.91 µM (inactive); with HCT-15, 0.914 µM; in the experiment on SK-MEL-2, 0.436 µM (active); with OVCAR-3, 1.32 µM (inactive). For the same compound, the GI50 in the experiment on CAKI-1 is 0.659 µM (active); with OVCAR-5, 0.618 µM (active); in the experiment on HL-60 it was 0.191 µM (active); with HOP-62, 0.102 µM (active); in the experiment on RXF 393, 0.0418 µM (active); in the experiment with SN12C it was 2.3 µM (inactive).
As for `COc1c2c(c3ccccc3c1O)C1C=CC2C1` (stereo not given), the GI50 in the experiment with OVCAR-8 is 13.7 µM (inactive); with HT-29 it was 19.7 µM (inactive); in the experiment on SK-MEL-5, 5.77 µM (inactive); in the experiment with IGROV-1, 20.8 µM (inactive); in the experiment on SNB-19 it was > 10 µM (inactive); in the experiment on Malme-3M it was 6.3 µM (inactive). In addition, the GI50 in the experiment on UO-31 is 5.35 µM (inactive); with HCC 2998, 16.1 µM (inactive); with OVCAR-4, 15.4 µM (inactive); with HCT-15, 10 µM; in the experiment with SK-MEL-2 it was 17.3 µM (inactive); in the experiment on OVCAR-3 it was 14.5 µM (inactive). Besides, the GI50 in the experiment with CAKI-1 is 17.1 µM (inactive); in the experiment on OVCAR-5, 18.7 µM (inactive); in the experiment with HL-60, > 10 µM (inactive); with HOP-62 it was 16.1 µM (inactive); in the experiment with RXF 393, 15.5 µM (inactive); with SK-MEL-28 it was 23.3 µM (inactive). Moreover, the GI50 in the experiment with SN12C was 15.1 µM (inactive).
Turning to `CC1CC2C3CCC4=CC(=O)C=CC4(C)C3(F)C(O)CC2(C)C1(O)C(=O)COP(=O)(O)O` (stereo not given), the GI50 with OVCAR-8, in the experiment on HT-29, with SF-295, in the experiment on SK-MEL-5, with IGROV-1 and with SNB-19 was > 100 µM (inactive) each time. Also, the GI50 in the experiment on Malme-3M is > 100 µM (inactive); in the experiment with UO-31, > 100 µM (inactive); in the experiment on HCC 2998 it was > 100 µM (inactive); with OVCAR-4, > 100 µM (inactive); in the experiment with HCT-15, over 100 µM; with SK-MEL-2 it was > 100 µM (inactive). Further, the GI50 in the experiment on OVCAR-3, in the experiment on CAKI-1, in the experiment on OVCAR-5, with HL-60, with HOP-62 and in the experiment on RXF 393 was > 100 µM (inactive) in each case. The GI50 in the experiment with SK-MEL-28 is > 100 µM (inactive).
